# Source: ChEMBL document CHEMBL3352227, “Synthesis, antimycobacterial and antibacterial evaluation of l-[(1R, 2S)-2-fluorocyclopropyl]fluoroquinolone derivatives containing an oxime functional moiety” (Eur J Med Chem, 2014)
# Legend:
# Type in all cases: functional
# [1] = test system: Mycobacterium tuberculosis; assay: Antimycobacterial activity against Mycobacterium tuberculosis H37Rv ATCC 27294 by MABA method
# Escherichia coli [2] = assay: Antibacterial activity against Escherichia coli ATCC 25922 after 18 to 24 hrs by standard twofold serial dilution method
# Escherichia coli [3] = assay: Antibacterial activity against Escherichia coli 12-1 after 18 to 24 hrs by standard twofold serial dilution method
# Escherichia coli [4] = assay: Antibacterial activity against extended-spectrum beta-lactamase producing Escherichia coli 12-2 after 18 to 24 hrs by standard twofold serial dilution method
# Escherichia coli [5] = assay: Antibacterial activity against extended-spectrum beta-lactamase producing Escherichia coli 12-3 after 18 to 24 hrs by standard twofold serial dilution method
# Escherichia coli [6] = assay: Antibacterial activity against extended-spectrum beta-lactamase producing Escherichia coli 12-14 after 18 to 24 hrs by standard twofold serial dilution method
# Escherichia coli [7] = assay: Antibacterial activity against extended-spectrum beta-lactamase producing Escherichia coli 12-15 after 18 to 24 hrs by standard twofold serial dilution method
# Klebsiella pneumoniae [8] = assay: Antibacterial activity against Klebsiella pneumoniae 12-1 after 18 to 24 hrs by standard twofold serial dilution method
# Klebsiella pneumoniae [9] = assay: Antibacterial activity against Klebsiella pneumoniae 12-2 after 18 to 24 hrs by standard twofold serial dilution method
# Klebsiella pneumoniae [10] = assay: Antibacterial activity against Klebsiella pneumoniae 12-4 after 18 to 24 hrs by standard twofold serial dilution method
# Klebsiella pneumoniae [11] = assay: Antibacterial activity against extended-spectrum beta-lactamase producin Klebsiella pneumoniae 12-3 after 18 to 24 hrs by standard twofold serial dilution method
# Klebsiella pneumoniae [12] = assay: Antibacterial activity against extended-spectrum beta-lactamase producin Klebsiella pneumoniae 12-4 after 18 to 24 hrs by standard twofold serial dilution method
# Klebsiella pneumoniae [13] = assay: Antibacterial activity against extended-spectrum beta-lactamase producin Klebsiella pneumoniae 12-7 after 18 to 24 hrs by standard twofold serial dilution method
# Klebsiella pneumoniae [14] = assay: Antibacterial activity against extended-spectrum beta-lactamase producin Klebsiella pneumoniae 12-14 after 18 to 24 hrs by standard twofold serial dilution method
# Pseudomonas aeruginosa [15] = assay: Antibacterial activity against Pseudomonas aeruginosa 12-12 after 18 to 24 hrs by standard twofold serial dilution method
# Pseudomonas aeruginosa [16] = assay: Antibacterial activity against Pseudomonas aeruginosa 12-14 after 18 to 24 hrs by standard twofold serial dilution method
# Staphylococcus aureus [17] = assay: Antibacterial activity against Staphylococcus aureus ATCC 25923 after 18 to 24 hrs by standard twofold serial dilution method
# Staphylococcus aureus [18] = assay: Antibacterial activity against methicillin-sensitive Staphylococcus aureus 12-1 after 18 to 24 hrs by standard twofold serial dilution method
# Staphylococcus aureus [19] = assay: Antibacterial activity against methicillin-sensitive Staphylococcus aureus 12-2 after 18 to 24 hrs by standard twofold serial dilution method
# Staphylococcus aureus [20] = assay: Antibacterial activity against methicillin-sensitive Staphylococcus aureus 12-4 after 18 to 24 hrs by standard twofold serial dilution method
# Staphylococcus aureus [21] = assay: Antibacterial activity against methicillin-sensitive Staphylococcus aureus 12-5 after 18 to 24 hrs by standard twofold serial dilution method
# Staphylococcus aureus [22] = assay: Antibacterial activity against methicillin-resistant Staphylococcus aureus 12-2 after 18 to 24 hrs by standard twofold serial dilution method
# Staphylococcus aureus [23] = assay: Antibacterial activity against methicillin-resistant Staphylococcus aureus 12-4 after 18 to 24 hrs by standard twofold serial dilution method
# Staphylococcus aureus [24] = assay: Antibacterial activity against methicillin-resistant Staphylococcus aureus 12-5 after 18 to 24 hrs by standard twofold serial dilution method
# [25] = test system: Staphylococcus epidermidis; assay: Antibacterial activity against methicillin-sensitive Staphylococcus epidermidis 12-1 after 18 to 24 hrs by standard twofold serial dilution method
# [26] = test system: Staphylococcus epidermidis; assay: Antibacterial activity against methicillin-sensitive Staphylococcus epidermidis 12-3 after 18 to 24 hrs by standard twofold serial dilution method
# [27] = test system: Staphylococcus epidermidis; assay: Antibacterial activity against methicillin-sensitive Staphylococcus epidermidis 12-6 after 18 to 24 hrs by standard twofold serial dilution method
# [28] = test system: Staphylococcus epidermidis; assay: Antibacterial activity against methicillin-sensitive Staphylococcus epidermidis 12-8 after 18 to 24 hrs by standard twofold serial dilution method
# [29] = test system: Staphylococcus epidermidis; assay: Antibacterial activity against methicillin-resistant Staphylococcus epidermidis 12-1 after 18 to 24 hrs by standard twofold serial dilution method
# [30] = test system: Staphylococcus epidermidis; assay: Antibacterial activity against methicillin-resistant Staphylococcus epidermidis 12-6 after 18 to 24 hrs by standard twofold serial dilution method
# Streptococcus pneumoniae [31] = assay: Antibacterial activity against Streptococcus pneumoniae ATCC 49619 after 18 to 24 hrs by standard twofold serial dilution method
# Streptococcus pneumoniae [32] = assay: Antibacterial activity against Streptococcus pneumoniae 12-18 after 18 to 24 hrs by standard twofold serial dilution method
Structure (SMILES),MIC [1] [µg/mL],MIC (Escherichia coli [2]) [µg/mL],MIC (Escherichia coli [3]) [µg/mL],MIC (Escherichia coli [4]) [µg/mL],MIC (Escherichia coli [5]) [µg/mL],MIC (Escherichia coli [6]) [µg/mL],MIC (Escherichia coli [7]) [µg/mL],MIC (Klebsiella pneumoniae [8]) [µg/mL],MIC (Klebsiella pneumoniae [9]) [µg/mL],MIC (Klebsiella pneumoniae [10]) [µg/mL],MIC (Klebsiella pneumoniae [11]) [µg/mL],MIC (Klebsiella pneumoniae [12]) [µg/mL],MIC (Klebsiella pneumoniae [13]) [µg/mL],MIC (Klebsiella pneumoniae [14]) [µg/mL],MIC (Pseudomonas aeruginosa [15]) [µg/mL],MIC (Pseudomonas aeruginosa [16]) [µg/mL],MIC (Staphylococcus aureus [17]) [µg/mL],MIC (Staphylococcus aureus [18]) [µg/mL],MIC (Staphylococcus aureus [19]) [µg/mL],MIC (Staphylococcus aureus [20]) [µg/mL],also measured
CCO/N=C1/CN(c2cc3c(cc2F)c(=O)c(C(=O)O)cn3[C@@H]2C[C@@H]2F)[C@@H]1CN,2,0.06,0.25,128,16,64,> 128,0.25,0.25,0.25,64,16,1,64,1,32,< 0.008,0.06,0.06,0.03,MIC (Staphylococcus aureus [21]): 0.03 µg/mL; MIC (Staphylococcus aureus [22]): 32 µg/mL; MIC (Staphylococcus aureus [23]): 32 µg/mL; MIC (Staphylococcus aureus [24]): 32 µg/mL; MIC [25]: 0.06 µg/mL; MIC [26]: 0.125 µg/mL; MIC [27]: 0.06 µg/mL; MIC [28]: 4 µg/mL; MIC [29]: 8 µg/mL; MIC [30]: 64 µg/mL; MIC (Streptococcus pneumoniae [31]): 0.25 µg/mL; MIC (Streptococcus pneumoniae [32]): 1 µg/mL
NC[C@@H]1/C(=N\OCc2ccccc2)CN1c1cc2c(cc1F)c(=O)c(C(=O)O)cn2[C@@H]1C[C@@H]1F,8,0.25,8,> 128,16,128,> 128,0.5,0.5,0.5,128,16,2,128,2,32,0.25,1,1,1,MIC (Staphylococcus aureus [21]): 1 µg/mL; MIC (Staphylococcus aureus [22]): > 128 µg/mL; MIC (Staphylococcus aureus [23]): > 128 µg/mL; MIC (Staphylococcus aureus [24]): 128 µg/mL; MIC [25]: 1 µg/mL; MIC [26]: 2 µg/mL; MIC [27]: 1 µg/mL; MIC [28]: 2 µg/mL; MIC [29]: 32 µg/mL; MIC [30]: 8 µg/mL; MIC (Streptococcus pneumoniae [31]): 0.5 µg/mL; MIC (Streptococcus pneumoniae [32]): 8 µg/mL
CO/N=C1/CCN(c2c(F)cc3c(=O)c(C(=O)O)cn([C@@H]4C[C@@H]4F)c3c2Cl)CC1N (stereo partly specified),16,1,2,> 128,32,> 128,> 128,2,2,1,> 128,32,16,> 128,16,128,1,0.25,0.25,0.25,MIC (Staphylococcus aureus [21]): 0.25 µg/mL; MIC (Staphylococcus aureus [22]): 32 µg/mL; MIC (Staphylococcus aureus [23]): 64 µg/mL; MIC (Staphylococcus aureus [24]): 32 µg/mL; MIC [25]: 0.5 µg/mL; MIC [26]: 1 µg/mL; MIC [27]: 0.5 µg/mL; MIC [28]: 4 µg/mL; MIC [29]: 16 µg/mL; MIC [30]: 32 µg/mL; MIC (Streptococcus pneumoniae [31]): 1 µg/mL; MIC (Streptococcus pneumoniae [32]): 8 µg/mL
